Measured values reported in the supplement of paper PMC10307832.

Tests used:
Assay in all cases: relative viability (nuclei count vs DMSO), 5 days (fraction); higher = more cells survive
[1] = compound: O=C1NC(=O)[C@@H](c2cn3c4c(cccc24)CCC3)[C@@H]1c1c[nH]c2ccccc12 [Tivantinib] + Cc1nc(NC(=O)N2CCC[C@H]2C(N)=O)sc1-c1ccnc(C(C)(C)C(F)(F)F)c1 [Alpelisib] (partner 2 µM)
Procedure, shortened: (§1)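 Relative viability equals treated-well nuclei counts divided by vehicle-well nuclei counts. Counts came from 4× images of lung cancer cell lines grown in 1536-well plates for 5 days after pin-tool dosing on the day after seeding. Dosing used one drug alone or a fixed anchor-drug dose plus five library-drug doses (not always all listed) in √10 steps, and values are medians of duplicate plates.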

[2] = compound: CC1(COc2ccc3c(c2)ncn3-c2ccc3cccc(N4CCC(N)CC4)c3n2)COC1 [Crenolanib] + NC(=O)Nc1cc(-c2cccc(F)c2)sc1C(=O)N[C@H]1CCCNC1 [AZD7762] (partner 0.2 µM)
Procedure, shortened: as §1

[3] = compound: CC1(COc2ccc3c(c2)ncn3-c2ccc3cccc(N4CCC(N)CC4)c3n2)COC1 [Crenolanib] + Cc1cc(Nc2cc(N3CCN(C)CC3)nc(Sc3ccc(NC(=O)C4CC4)cc3)n2)n[nH]1 [Tozasertib] (partner 0.1 µM)
Procedure, shortened: as §1

[4] = compound: CC1(COc2ccc3c(c2)ncn3-c2ccc3cccc(N4CCC(N)CC4)c3n2)COC1 [Crenolanib] + COc1cccc2cc(-c3nc([C@H]4CC[C@H](C(=O)O)CC4)n4ncnc(N)c34)[nH]c12 [OSI-027] (partner 0.5 µM)
Procedure, shortened: as §1

Cell Line	relative viability ([1]; first compound 0.01 µM)	relative viability ([1]; first compound 0.03162 µM)	relative viability ([1]; first compound 0.1 µM)	relative viability ([1]; first compound 0.3162 µM)	relative viability ([2]; first compound 0.01 µM)	relative viability ([2]; first compound 0.03162 µM)	relative viability ([2]; first compound 0.1 µM)	relative viability ([2]; first compound 0.3162 µM)	relative viability ([2]; first compound 1 µM)	relative viability ([3]; first compound 0.01 µM)	relative viability ([3]; first compound 0.03162 µM)	relative viability ([3]; first compound 0.1 µM)	relative viability ([3]; first compound 0.3162 µM)	relative viability ([3]; first compound 1 µM)	relative viability ([4]; first compound 0.01 µM)	relative viability ([4]; first compound 0.03162 µM)	relative viability ([4]; first compound 0.1 µM)	relative viability ([4]; first compound 0.3162 µM)	relative viability ([4]; first compound 1 µM)
LU99A	0.477	0.477	0.453	0.369	0.42	0.419	0.414	0.467	0.401	0.288	0.261	0.277	0.249	0.263	0.305	0.318	0.257	0.331	0.264
NCI-H23	0.778	0.623	0.717	0.557	0.273	0.309	0.244	0.268	0.276	0.358	0.394	0.385	0.313	0.27	0.689	0.649	0.594	0.783	0.351
PC-3 [JPC-3]	0.993	1.06	1.05	0.775	0.761		0.832	0.78	0.752	0.889	0.856	0.81	0.902	0.87	0.804	0.725	0.803	0.792	0.719
NCI-H1666	0.902	0.904	0.948	0.608	0.928	0.831	0.761	0.905	0.889	0.695	0.613	0.633	0.591	0.555	0.85	0.933	0.834	0.906	0.85
NCI-H727	0.537	0.526	0.505		0.702	0.445	0.546	0.671	0.587	0.635	0.579	0.721	0.65	0.501	0.782	0.649	0.731	0.614	0.431
HCC-15	0.942	0.832	0.799	0.996	1.07	1.15	0.961	0.607	1.17	0.397	0.313	0.444	0.378	0.427	0.742	0.695	0.676	0.616	0.393
NCI-H647	1.15	1.16	1.09	1.14	0.616	0.497	0.448	0.481	0.424	0.294	0.384	0.285	0.354	0.297	0.588	0.623	0.79	0.709	0.705
NCI-H2347	1.16	0.959	1.06	1.01	0.815	0.772	0.678	0.818	0.85	0.646			0.454	0.48	0.326			0.482	0.427
LOU-NH91	0.663	0.695	0.742	0.533	0.765	0.762	0.782	0.817	0.697	0.767	0.655	0.653	0.431	0.616	0.765	0.729	0.642	0.717	0.624
H3255	0.659	0.679	0.75		1.05	0.761	0.907	0.835	0.797	0.672	0.609	0.579	0.671	0.611	0.586	0.544	0.514	0.573	0.588
NCI-H1975	0.645	0.676	0.602	0.5	0.741	0.732	0.629	0.639	0.712	0.754	0.759	0.698	0.881	0.632	0.717	0.792	0.668	0.682	0.778
NCI-H3122	0.731	0.849	0.803	0.807	1.02	0.958	1.02	1.04	0.996	0.406	0.399	0.373	0.334	0.452	1.01	0.974	0.962	1.17	1.06
NCI-H441	0.736	0.648		0.76	1.24	1.56	1.15	1.33	1.17	0.68	0.82	0.643	0.717	0.663	0.929	0.6	0.507	0.539	0.463
NCI-H2170	0.806	0.852	0.674		0.941	0.852	0.897	0.934	0.852	0.747	0.857	0.69	0.648	0.769	0.82	0.744	0.706	0.828	0.669
NCI-H1395	1.18	1.23	1	0.878	0.374	0.392	0.412	0.457	0.473	0.742	0.759	0.81	0.691	0.659	0.749	0.626	0.666	0.605	0.6
LC-2-ad	0.889	0.93	0.847	0.904	0.892	0.898	0.777	0.908	0.821	0.495	0.435	0.447	0.34	0.385	0.939	0.793	0.792	0.706	0.554
NCI-H358	0.911	0.78	0.827	0.365	0.577	0.67	0.465	0.537	0.584	0.0999	0.097	0.0998	0.0966	0.12	0.849	0.777	0.675	0.744	0.565
